# Test results from patent publication US20250262201A1, “COMPOUNDS AND METHODS USEFUL FOR STABILIZING PHENYLALANINE HYDROXYLASE MUTATIONS” (Agios Pharmaceuticals, Inc., priority 2022, published 2025).
# Counter-ions that a name gives are not always drawn.
# Target: T1, human PAH with the R408W mutation (Homo sapiens, UniProt P00439, R408W)
# T1 construct: expressed in transfected cells
# T1 sequence (P00439 1-452 R408W): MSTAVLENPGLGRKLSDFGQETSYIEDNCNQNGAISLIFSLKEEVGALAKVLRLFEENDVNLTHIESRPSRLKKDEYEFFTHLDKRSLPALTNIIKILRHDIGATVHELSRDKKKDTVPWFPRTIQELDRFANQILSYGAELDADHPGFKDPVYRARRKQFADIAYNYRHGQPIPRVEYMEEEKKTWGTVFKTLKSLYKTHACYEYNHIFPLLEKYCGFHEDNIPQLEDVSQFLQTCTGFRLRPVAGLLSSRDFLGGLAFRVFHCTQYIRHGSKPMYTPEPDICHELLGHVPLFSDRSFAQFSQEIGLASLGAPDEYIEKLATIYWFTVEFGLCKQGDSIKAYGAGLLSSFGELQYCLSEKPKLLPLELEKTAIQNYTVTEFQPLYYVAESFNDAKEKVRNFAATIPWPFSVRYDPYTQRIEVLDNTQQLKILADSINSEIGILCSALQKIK
# Experiment: Cell Based Phenylalanine Flux Assay
# Parameters: scale not given here
# Conditions: A375 R408W cells, 24 hrs with compound, then 20 μM sepiapterin and 800 μM 13C9,15N-Phenylalanine for 4 hours; 13C-Tyrosine by LC-MS; average where tested multiple times
row,AC50,Structure (SMILES)
1,"E, E","CC1CN(C(=O)c2nnc(C(C)(C)O)o2)C(c2cc3ccccc3cn2)c2nc[nH]c21 [(4S, 7R) diastereomer of 2-{5-[4-(isoquinolin-3-yl)-7-methyl]"

# Same assay, conditions: A375 R408W cells, 24 hrs with compound, then 20 μM sepiapterin and 800 μM 13C9,15N-Phenylalanine for 4 hours; 13C-Tyrosine by LC-MS; average where tested multiple times; read-out: AC50
row,AC50,Structure (SMILES)
1,1000 to 5000 nM,C[C@H](O)c1nnc(C(=O)N2CCc3[nH]cnc3[C@H]2c2cc3ccccc3cn2)o1
2,> 5000 nM,Cc1ncoc1C(=O)N1CC(C)c2[nH]cnc2C1c1cc2ccccc2cn1 (stereo not drawn)
3,> 5000 nM,Cn1nc(C(C)(C)O)cc1C(=O)N1CCc2[nH]cnc2C1c1ccc2ccccc2n1 (stereo not drawn)
4,1000 to 5000 nM,Cc1nc(C(C)(C)C)oc1C(=O)N1CCc2[nH]cnc2C1c1cc2ccccc2cn1 (stereo not drawn)
5,1000 to 5000 nM,O=C(c1cnco1)N1CCc2[nH]cnc2C1c1cn2ccccc2n1 (stereo not drawn)
6,> 5000 nM,CC(C)(O)c1ncc(C(=O)N2CCc3[nH]cnc3C2c2ccc3ccccc3n2)s1 (stereo not drawn)
7,1000 to 5000 nM,FC(F)(F)c1cnc(N2CCc3[nH]cnc3C2c2cc3ccccc3cn2)nc1 (stereo not drawn)
8,1000 to 5000 nM,CC1CN(C(=O)c2nnc(-c3cnn(C)c3)o2)C(c2cc3ccccc3cn2)c2nc[nH]c21 (stereo not drawn)
9,> 5000 nM,CC1CN(C(=O)c2nnc(N(C)C)o2)C(c2cc3ccccc3cn2)c2nc[nH]c21 (stereo not drawn)

# Same assay, conditions: A375 cells expressing human R408W PAH; 24 hrs compound incubation; 13C-Tyrosine by LC-MS; average where tested multiple times; read-out: AC50
row,AC50,Structure (SMILES)
1,500 to 1000 nM,"O=C(c1cnn2cc(N3CCC(O)CC3)ccc12)N1CCc2[nH]cnc2[C@H]1c1cc2ccccc2cn1 [Example 478, (R)-(6-(4-hydroxypiperidin-1-yl)pyrazolo[1,5-a]pyridin-3-yl)(4-(isoquinolin-3-yl)-6,7-dihydro-1H-imidazo[4,5-c]pyridin-5(4H)-yl)methanone]"
2,< 500 nM,"Cc1cccc(-c2ccc3c(C(=O)N4CCc5[nH]cnc5[C@H]4c4cc5ccccc5cn4)cnn3c2)n1 [Example 479, (R)-(4-(isoquinolin-3-yl)-6,7-dihydro-1H-imidazo[4,5-c]pyridin-5(4H)-yl)(6-(6-methylpyridin-2-yl)pyrazolo[1,5-a]pyridin-3-yl)methanone]"
3,> 5000 nM,"O=C(c1cnc(-c2ccccn2)s1)N1CCc2[nH]cnc2[C@@H]1c1ccc2ccccc2c1 [Example 224, (S)-(4-(naphthalen-2-yl)-6,7-dihydro-1H-imidazo[4,5-c]pyridin-5(4H)-yl)(2-(pyridin-2-yl)thiazol-5-yl)methanone]"
4,< 500 nM,"Cc1nc(C(C)(C)C#N)oc1C(=O)N1CCc2[nH]cnc2C1c1ccc2ccccc2n1 (stereo in doubt) [Example 118, (R)-2-methyl-2-(4-methyl-5-(4-(quinolin-2-yl)-4,5,6,7-tetrahydro-1H-imidazo[4,5-c]pyridine-5-carbonyl)oxazol-2-yl)propanenitrile]"
5,> 5000 nM,"CC(F)(F)c1ncc(C(=O)N2CCc3[nH]cnc3[C@@H]2c2cn3ccccc3n2)s1 (single isomer, unassigned) [Example 235]"
6,< 500 nM,"Cn1ccc(-c2nnc(C(=O)N3CCc4[nH]cnc4[C@H]3c3cc4ccccc4cn3)o2)n1 [Example 441, (R)-(4-(isoquinolin-3-yl)-6,7-dihydro-1H-imidazo[4,5-c]pyridin-5(4H)-yl)(5-(1-methyl-1H-pyrazol-3-yl)-1,3,4-oxadiazol-2-yl)methanone]"
7,< 500 nM,"COCCc1ccc2c(C(=O)N3CCc4[nH]cnc4[C@H]3c3cc4ccccc4cn3)cnn2c1 [Example 453, (R)-(4-(isoquinolin-3-yl)-6,7-dihydro-1H-imidazo[4,5-c]pyridin-5(4H)-yl)(6-(2-methoxyethyl)pyrazolo[1,5-a]pyridin-3-yl)methanone]"
8,1000 to 5000 nM,"C[C@H]1CN(C(=O)c2cnc(C(C)(C)O)o2)[C@@H](c2cc3ccccc3cn2)c2nc[nH]c21 [Example 396, (2-(2-hydroxypropan-2-yl)oxazol-5-yl)((4S,7S)-4-(isoquinolin-3-yl)-7-methyl-6,7-dihydro-1H-imidazo[4,5-c]pyridin-5(4H)-yl)methanone]"
9,< 500 nM,"COc1ccc(-c2nnc(C(=O)N3CCc4[nH]cnc4[C@H]3c3ncc4ccccc4n3)o2)nc1 [Example 181, (S)-(5-(5-methoxypyridin-2-yl)-1,3,4-oxadiazol-2-yl)(4-(quinazolin-2-yl)-6,7-dihydro-1H-imidazo[4,5-c]pyridin-5(4H)-yl)methanone]"
10,> 5000 nM,"O=C(CCc1nccs1)N1CCc2[nH]cnc2[C@@H]1c1ncc2ccccc2n1 [Example 274, (R)-1-(4-(quinazolin-2-yl)-6,7-dihydro-1H-imidazo[4,5-c]pyridin-5(4H)-yl)-3-(thiazol-2-yl)propan-1-one]"
11,1000 to 5000 nM,"O=C(CC1CC(F)C1)N1CCc2[nH]cnc2[C@@H]1c1cn2ccccc2n1 (stereo partly drawn) [Example 253, (S)-2-(3-fluorocyclobutyl)-1-(4-(imidazo[1,2-a]pyridin-2-yl)-6,7-dihydro-1H-imidazo[4,5-c]pyridin-5(4H)-yl)ethanone]"
12,500 to 1000 nM,"Cn1cc(-c2nnc(C(=O)N3CCc4[nH]cnc4C3c3ccc4ccccc4n3)o2)cn1 (stereo in doubt) [Example 47, (R)-(5-(1-methyl-1H-pyrazol-4-yl)-1,3,4-oxadiazol-2-yl)(4-(quinolin-2-yl)-6,7-dihydro-1H-imidazo[4,5-c]pyridin-5(4H)-yl)methanone]"
13,500 to 1000 nM,"COc1ccc(-c2nnc(C(=O)N3C[C@H](C)c4[nH]cnc4[C@H]3c3cc4ccccc4cn3)o2)nc1 [Example 516, ((4R,7S)-4-(isoquinolin-3-yl)-7-methyl-6,7-dihydro-1H-imidazo[4,5-c]pyridin-5(4H)-yl)(5-(5-methoxypyridin-2-yl)-1,3,4-oxadiazol-2-yl)methanone]"
14,< 500 nM,"O=C(c1cnn2cc(-c3ccccn3)ccc12)N1CCc2[nH]cnc2[C@H]1c1cc2ccccc2cn1 [Example 461, (R)-(4-(isoquinolin-3-yl)-6,7-dihydro-1H-imidazo[4,5-c]pyridin-5(4H)-yl)(6-(pyridin-2-yl)pyrazolo[1,5-a]pyridin-3-yl)methanone]"
15,< 500 nM,"O=C(c1nnc(-c2cccnc2)o1)N1CCc2[nH]cnc2[C@H]1c1cc2ccccc2cn1 [Example 445, (R)-(4-(isoquinolin-3-yl)-6,7-dihydro-1H-imidazo[4,5-c]pyridin-5(4H)-yl)(5-(pyridin-3-yl)-1,3,4-oxadiazol-2-yl)methanone]"
16,< 500 nM,"O=C(CC1CC1)N1CCc2[nH]cnc2C1c1ccc2ccccc2n1 (stereo in doubt) [Example 41, (R)-2-cyclopropyl-1-(4-(quinolin-2-yl)-6,7-dihydro-1H-imidazo[4,5-c]pyridin-5(4H)-yl)ethanone]"
17,500 to 1000 nM,O=C(c1nnc(-c2ccn(C(F)F)n2)o1)N1CCc2[nH]cnc2[C@H]1c1ccc2ccccc2n1 [Example 96]
18,1000 to 5000 nM,"O=C(c1nnc(-c2cccnc2)o1)N1CCc2[nH]cnc2[C@@H]1c1ncc2ccccc2n1 [Example 178, (R)-(5-(pyridin-3-yl)-1,3,4-oxadiazol-2-yl)(4-(quinazolin-2-yl)-6,7-dihydro-1H-imidazo[4,5-c]pyridin-5(4H)-yl)methanone]"
19,< 500 nM,"N#Cc1ncoc1C(=O)N1CCc2[nH]cnc2C1c1ccc2ccccc2n1 (stereo in doubt) [Example 57, (R)-5-(4-(quinolin-2-yl)-4,5,6,7-tetrahydro-1H-imidazo[4,5-c]pyridine-5-carbonyl)oxazole-4-carbonitrile]"
20,> 5000 nM,"Cn1cc(-c2ncc(C(=O)N3CCc4[nH]cnc4[C@@H]3c3cc4ccccc4cn3)s2)cn1 [Example 303, (S)-(4-(isoquinolin-3-yl)-6,7-dihydro-1H-imidazo[4,5-c]pyridin-5(4H)-yl)(2-(1-methyl-1H-pyrazol-4-yl)thiazol-5-yl)methanone]"
21,1000 to 5000 nM,"Cn1nccc1-c1nnc(C(=O)N2CCc3[nH]cnc3[C@@H]2c2ncc3ccccc3n2)o1 [Example 204, (R)-(5-(1-methyl-1H-pyrazol-5-yl)-1,3,4-oxadiazol-2-yl)(4-(quinazolin-2-yl)-6,7-dihydro-1H-imidazo[4,5-c]pyridin-5(4H)-yl)methanone]"
22,< 500 nM,"CC(C)(C)c1nnc(C(=O)N2CCc3[nH]cnc3[C@H]2c2ncc3ccccc3n2)o1 [Example 201, (S)-(5-(tert-butyl)-1,3,4-oxadiazol-2-yl)(4-(quinazolin-2-yl)-6,7-dihydro-1H-imidazo[4,5-c]pyridin-5(4H)-yl)methanone]"
23,500 to 1000 nM,"O=C(c1nnc(-c2cnn(CC(F)(F)F)c2)o1)N1CCc2[nH]cnc2[C@H]1c1ccc2ccccc2n1 (single isomer, unassigned) [Example 67]"
24,< 500 nM,"Cc1ccc2c(C(=O)N3CCc4[nH]cnc4[C@H]3c3cc4ccccc4cn3)cnn2c1 [Example 466, (R)-(4-(isoquinolin-3-yl)-6,7-dihydro-1H-imidazo[4,5-c]pyridin-5(4H)-yl)(6-methylpyrazolo[1,5-a]pyridin-3-yl)methanone]"
25,< 500 nM,"CC(C)(O)c1nc(C(F)F)c(C(=O)N2CCc3[nH]cnc3C2c2ccc3ccccc3n2)o1 (stereo in doubt) [Example 91, (R)-(4-(difluoromethyl)-2-(2-hydroxypropan-2-yl)oxazol-5-yl)(4-(quinolin-2-yl)-6,7-dihydro-1H-imidazo[4,5-c]pyridin-5(4H)-yl)methanone]"
26,< 500 nM,"Cc1nc(C(C)(C)O)oc1C(=O)N1CCc2[nH]cnc2[C@H]1c1ncc2ccccc2n1 [Example 141, (S)-(2-(2-hydroxypropan-2-yl)-4-methyloxazol-5-yl)(4-(quinazolin-2-yl)-6,7-dihydro-1H-imidazo[4,5-c]pyridin-5(4H)-yl)methanone hydrochloride]"
